Experimental data reported in ChEMBL document CHEMBL3102801, “Synthesis and antiproliferative activity of new derivatives containing the polycyclic system 5,7:7,13-dimethanopyrazolo[3,4-b]pyrazolo[3',4':2,3]azepino[4,5-f]azocine” (Eur J Med Chem, 2014).

How the values were obtained:
Format in all cases: functional
SK-MEL-2 = assay: Growth inhibition of human SK-MEL-2 cells after 48 hrs by sulforhodamine B assay; settings: SK-MEL-2, 48 h
HT-29 = assay: Growth inhibition of human HT-29 cells after 48 hrs by sulforhodamine B assay; settings: HT-29, 48 h
DU-145 = assay: Growth inhibition of human DU145 cells after 48 hrs by sulforhodamine B assay; settings: DU-145, 48 h
[1] = Growth inhibition of human OVCAR4 cells after 48 hrs by sulforhodamine B assay; settings: OVCAR-4, 48 h
NCI-H322M = assay: Growth inhibition of human NCI-H322M cells after 48 hrs by sulforhodamine B assay
OVCAR-3 = assay: Growth inhibition of human OVCAR3 cells after 48 hrs by sulforhodamine B assay; settings: OVCAR-3, 48 h
SN12C = assay: Growth inhibition of human SN12C cells after 48 hrs by sulforhodamine B assay
NCI-H23 = assay: Growth inhibition of human NCI-H23 cells after 48 hrs by sulforhodamine B assay; settings: NCI-H23, 48 h
SNB-19 = assay: Growth inhibition of human SNB19 cells after 48 hrs by sulforhodamine B assay; settings: SNB-19, 48 h
SF-268 = assay: Growth inhibition of human SF268 cells after 48 hrs by sulforhodamine B assay; settings: SF-268, 48 h
HCT-116 = assay: Growth inhibition of human HCT116 cells after 48 hrs by sulforhodamine B assay; settings: HCT-116, 48 h
TK-10 = assay: Growth inhibition of human TK10 cells after 48 hrs by sulforhodamine B assay; settings: TK-10, 48 h
BT-549 = assay: Growth inhibition of human BT549 cells after 48 hrs by sulforhodamine B assay; settings: BT-549, 48 h
NCI-H522 = assay: Growth inhibition of human NCI-H522 cells after 48 hrs by sulforhodamine B assay; settings: NCI-H522, 48 h
786-0 = assay: Growth inhibition of human 786-0 cells after 48 hrs by sulforhodamine B assay; settings: 786-0, 48 h
IGROV-1 = assay: Growth inhibition of human IGROV1 cells after 48 hrs by sulforhodamine B assay; settings: IGROV-1, 48 h
A498 = assay: Growth inhibition of human A498 cells after 48 hrs by sulforhodamine B assay; settings: A498, 48 h
OVCAR-8 = assay: Growth inhibition of human OVCAR8 cells after 48 hrs by sulforhodamine B assay; settings: OVCAR-8, 48 h
PC-3 = assay: Growth inhibition of human PC3 cells after 48 hrs by sulforhodamine B assay; settings: PC-3, 48 h
[2] = Growth inhibition of human Hs 578T cells after 48 hrs by sulforhodamine B assay
U-251 = assay: Growth inhibition of human U251 cells after 48 hrs by sulforhodamine B assay; settings: U-251, 48 h
T47D = assay: Growth inhibition of human T47D cells after 48 hrs by sulforhodamine B assay
NCI-H226 = assay: Growth inhibition of human NCI-H226 cells after 48 hrs by sulforhodamine B assay; settings: NCI-H226, 48 h
MDA-MB-231 = assay: Growth inhibition of human MDA-MB-231 cells after 48 hrs by sulforhodamine B assay; settings: MDA-MB-231, 48 h
[3] = Growth inhibition of human RXF393 cells after 48 hrs by sulforhodamine B assay; settings: RXF 393, 48 h
ACHN = assay: Growth inhibition of human ACHN cells after 48 hrs by sulforhodamine B assay
MDA-MB-468 = assay: Growth inhibition of human MDA-MB-468 cells after 48 hrs by sulforhodamine B assay; settings: MDA-MB-468, 48 h
A549 = assay: Growth inhibition of human A549 cells after 48 hrs by sulforhodamine B assay; settings: A549, 48 h
MCF7 = assay: Growth inhibition of human MCF7 cells after 48 hrs by sulforhodamine B assay; settings: MCF7, 48 h
NCI-H460 = assay: Growth inhibition of human NCI-H460 cells after 48 hrs by sulforhodamine B assay; settings: NCI-H460, 48 h
Malme-3M = assay: Growth inhibition of human MALME-3M cells after 48 hrs by sulforhodamine B assay
[4] = Growth inhibition of human UACC257 cells after 48 hrs by sulforhodamine B assay; settings: UACC-257, 48 h
HOP-62 = assay: Growth inhibition of human HOP62 cells after 48 hrs by sulforhodamine B assay; settings: HOP-62, 48 h
[5] = Growth inhibition of human OVCAR5 cells after 48 hrs by sulforhodamine B assay; settings: OVCAR-5, 48 h
SK-MEL-28 = assay: Growth inhibition of human SK-MEL-28 cells after 48 hrs by sulforhodamine B assay; settings: SK-MEL-28, 48 h
SK-OV-3 = assay: Growth inhibition of human SKOV3 cells after 48 hrs by sulforhodamine B assay; settings: SK-OV-3, 48 h
UACC-62 = assay: Growth inhibition of human UACC62 cells after 48 hrs by sulforhodamine B assay; settings: UACC-62, 48 h
[6] = Growth inhibition of human HCC2998 cells after 48 hrs by sulforhodamine B assay; settings: HCC 2998, 48 h
[7] = Growth inhibition of human SF539 cells after 48 hrs by sulforhodamine B assay; settings: SF-539, 48 h
[8] = Growth inhibition of human NCI-ADR-RES cells after 48 hrs by sulforhodamine B assay
[9] = Growth inhibition of human UO31 cells after 48 hrs by sulforhodamine B assay; settings: UO-31, 48 h
[10] = Growth inhibition of human HOP92 cells after 48 hrs by sulforhodamine B assay; settings: HOP-92, 48 h
MDA-MB-435 = assay: Growth inhibition of human MDA-MB-435 cells after 48 hrs by sulforhodamine B assay; settings: MDA-MB-435, 48 h
HCT-15 = assay: Growth inhibition of human HCT15 cells after 48 hrs by sulforhodamine B assay; settings: HCT-15, 48 h

COc1ccc(-n2nc(C)c3c2N(C)C2(C)CC4C3(C)C3CC4(C2)N(C)c2c(c(C)nn2-c2ccc(OC)cc2)C3C)cc1 (stereo not drawn)
GI50 (SK-MEL-2): 7.29 µM | GI50 (HT-29): 3.39 µM | GI50 (DU-145): 23 µM | GI50 [1]: 5.95 µM | GI50 (NCI-H322M): 22.4 µM | GI50 (OVCAR-3): 7.14 µM | GI50 (SN12C): 8.07 µM | GI50 (NCI-H23): 18.7 µM | GI50 (SNB-19): 4.45 µM | GI50 (SF-268): 4.08 µM | GI50 (HCT-116): 2.09 µM | GI50 (TK-10): 4.77 µM | GI50 (BT-549): 4.17 µM | GI50 (NCI-H522): 0.891 µM | GI50 (786-0): 5.47 µM | GI50 (IGROV-1): 19.5 µM | GI50 (A498): 3.95 µM | GI50 (OVCAR-8): 4.19 µM | GI50 (PC-3): 1.71 µM | GI50 [2]: 4.27 µM | GI50 (U-251): 3.94 µM | GI50 (T47D): 2.44 µM | GI50 (NCI-H226): 5.34 µM | GI50 (MDA-MB-231): 6.35 µM | GI50 [3]: 2.92 µM | GI50 (ACHN): 6.13 µM | GI50 (MDA-MB-468): 4.76 µM | GI50 (A549): 3.29 µM | GI50 (MCF7): 4.02 µM | GI50 (NCI-H460): 3.69 µM | GI50 (Malme-3M): 6.34 µM | GI50 [4]: 2.34 µM | GI50 (HOP-62): 3.1 µM | GI50 [5]: > 100 µM | GI50 (SK-MEL-28): 1.52 µM | GI50 (SK-OV-3): 2.53 µM | GI50 (UACC-62): 12.6 µM | GI50 [6]: 9.65 µM | GI50 [7]: 63.5 µM | GI50 [8]: 8.03 µM

Cc1nn(-c2ccccc2)c2c1C(C)C1CC3(CC4(C)CC3C1(C)c1c(C)nn(-c3ccccc3)c1N4C)N2C (stereo not drawn)
GI50 (SK-MEL-2): > 100 µM | GI50 [1]: 8.66 µM | GI50 (NCI-H322M): > 100 µM | GI50 (SN12C): > 100 µM | GI50 (NCI-H23): > 100 µM | GI50 (SNB-19): > 100 µM | GI50 (SF-268): > 100 µM | GI50 (TK-10): > 100 µM | GI50 (BT-549): > 100 µM | GI50 (NCI-H522): 3.88 µM | GI50 (786-0): > 100 µM | GI50 (IGROV-1): > 100 µM | GI50 (A498): > 100 µM | GI50 (PC-3): 0.591 µM | GI50 [2]: > 100 µM | GI50 (T47D): 2.64 µM | GI50 (NCI-H226): > 100 µM | GI50 (MDA-MB-231): > 100 µM | GI50 [3]: 3.41 µM | GI50 (MCF7): 3.46 µM | GI50 [9]: > 100 µM | GI50 [10]: 0.792 µM | GI50 (Malme-3M): > 100 µM | GI50 (HOP-62): 18.3 µM | GI50 [5]: > 100 µM | GI50 (SK-MEL-28): 3.14 µM | GI50 (SK-OV-3): 24.1 µM | GI50 [6]: > 100 µM | GI50 [7]: > 100 µM | GI50 [8]: > 100 µM

C=C1c2c(C)nn(-c3ccccc3)c2N(C)C23CC1C1(C)c4c(C)nn(-c5ccccc5)c4N(C)C(C)(CC12)C3 (stereo not drawn)
GI50 (SK-MEL-2): 6.78 µM | GI50 (HT-29): 3.59 µM | GI50 (DU-145): 8.7 µM | GI50 [1]: 4.49 µM | GI50 (NCI-H322M): 33.8 µM | GI50 (OVCAR-3): 4.58 µM | GI50 (SN12C): 9.92 µM | GI50 (NCI-H23): 7.99 µM | GI50 (SNB-19): 11 µM | GI50 (SF-268): 7.52 µM | GI50 (HCT-116): 3.72 µM | GI50 (TK-10): 4.77 µM | GI50 (BT-549): 5.55 µM | GI50 (NCI-H522): 2.12 µM | GI50 (786-0): 11.8 µM | GI50 (IGROV-1): 11.9 µM | GI50 (A498): 4.28 µM | GI50 (OVCAR-8): 5.41 µM | GI50 (PC-3): 0.979 µM | GI50 [2]: 5.67 µM | GI50 (U-251): 4.44 µM | GI50 (T47D): 2.13 µM | GI50 (NCI-H226): 15.3 µM | GI50 (MDA-MB-231): 4.55 µM | GI50 [3]: 2.04 µM | GI50 (ACHN): 4.78 µM | GI50 (MDA-MB-435): 4.12 µM | GI50 (MDA-MB-468): 2.9 µM | GI50 (A549): 2.37 µM | GI50 (MCF7): 2.99 µM | GI50 [10]: 0.549 µM | GI50 (NCI-H460): 3.35 µM | GI50 (Malme-3M): 4.19 µM | GI50 [4]: 2.87 µM | GI50 (HOP-62): 7.15 µM | GI50 [5]: > 100 µM | GI50 (SK-MEL-28): 2.26 µM | GI50 (SK-OV-3): 4.64 µM | GI50 (HCT-15): 3.67 µM | GI50 (UACC-62): 4.38 µM | GI50 [6]: 6.22 µM | GI50 [7]: 26.7 µM | GI50 [8]: 6.04 µM
